Patent US12139481B2, “Compositions comprising macrocycle derivatives incorporating bridged macrocycles and methods of producing and using same” (Southwestern Oklahoma State University, priority 2015, dated 2024)
Read-outs that look alike come from different tables or passages of the source.

What was measured:
[1] = tested on: Plasmodium falciparum W2 clone (Indochina, chloroquine-resistant); experiment: In vitro antimalarial assay, chloroquine-resistant W2 clone; assay type: cell-based; settings: for X more potent than chloroquine: molar IC50 ratio versus chloroquine
Method: (§1) The compounds were assayed for in vitro antimalarial activity against the W2 clone and D6 clone of the pathogenic Plasmodium falciparum. The strains of P. falciparum were obtained from the Division of Experimental Therapeutics, Walter Reed Army Institute of Research, Washington D.C. Strains of Sierra Leon D6 and Indochina W2 are chloroquine-sensitive and chloroquine-resistant, respectively. The parasite was grown in type A human RBCs and, two strains subcultured daily with fresh medium and blood cells. On the day of the assay, a suspension of infected blood cells (2% parasitemia and 2% hematocrit) was prepared using type A human red blood cells. Assays were performed by standard 96-well flat-bottomed microplate methods and done in duplicate at different concentrations. IC50 values were obtained from the dose curves. Artemisinin and chloroquine were included in each assay as the drug controls, and DMSO was used as vehicle control. The whole protocol was developed based on the published method of Makler. The cytotoxicity assays were also performed in parallel against the Vero cells, and the selectivity index was measured. A selectivity index of >9 was considered to indicate a lead for further development of antimalarial drug.

[2] = tested on: Plasmodium falciparum D6 clone (Sierra Leon, chloroquine-sensitive); experiment: In vitro antimalarial assay, chloroquine-sensitive D6 clone; assay type: cell-based; settings: for X more potent than chloroquine: molar IC50 ratio versus chloroquine
Method: as §1

C. krusei ATCC 6258 = experiment: Antifungal broth dilution assay against C. krusei (modified CLSI); assay type: cell-based, Candida krusei; settings: for X more potent than Amphotericin B: C. krusei, ratio of molar IC50 to amphotericin B; for C. krusei IC50 / IC50: in vitro; for IC50: read-out: C. krusei IC50 (mol/L)
Method: (§2) General Experimental Procedures. All organisms were obtained from the American Type Culture Collection (Manassas, VA) and include the fungi Candida albicans ATCC 90028, C. glabrata ATCC 90030, C. krusei ATCC 6258, and Cryptococcus neoformans ATCC 90113, and the bacteria Staphylococcus aureus ATCC 29213 and methicillin-resistant S. aureus ATCC 33591 (MRS). All organisms were tested using modified versions of the CLSI (formerly NCCLS) methods. For all organisms, optical density was used to monitor growth (NCCLS, Reference Method for Broth Dilution Antifungal Susceptibility Testing of Yeasts; Approved Standard M27-A2. National Committee on Clinical Laboratory Standards, 2002 22 (15); and NCCLS, Methods for Dilution Antimicrobial Susceptibility Tests for Bacteria that Grow Aerobically; Approved Standard, Seventh Edition M7-A7. National Committee on Clinical Laboratory Standards, 2006. 26(2)).
(§3) Samples (dissolved in DMSO) were serially-diluted in 20% DMSO/saline and transferred (10 μL) in duplicate to 96 well flat bottom microplates. Inocula were prepared by correcting the OD630 of microbe suspensions in incubation broth [RPMI 1640/0.2% dextrose/0.03% glutamine/MOPS @ pH 6.0 (Cellgro) for Candida spp., Sabouraud Dextrose for C. neoformans, and cation-adjusted Mueller-Hinton (Difco) @ pH 7.3 for Staphylococcus spp. to afford an assay volume of […] and final target inocula of: Candida spp. and C. neoformans: 1.5×10^3, and Staphylococcus spp.: 5.0×10^5 CFU/ml. Final sample test concentrations were 1/100th the DMSO stock concentration. […] All organisms were read at either 530 nm using the Biotek Powerwave XS plate reader (Bio-Tek Instruments, Vermont) prior to and after incubation: Candida spp. at 35° C. for 46-50 h, Staphylococcus spp. at 35° C. for 16-20 h, and C. neoformans at 35° C. for 70-74 h. IC50s (concentrations that afford 50% inhibition relative to controls) were calculated using XLfit 4.2 software (IDBS, Alameda, CA) using fit model 201. The MIC is defined as the lowest test concentration that allows no detectable growth. Minimum fungicidal or bactericidal concentrations were determined by removing 5 μl from each clear (or blue) well, transferring to fresh media, and incubating as previously mentioned. The MFC/MBC is defined as the lowest test concentration that kills the organism (allows no growth).
(§4) Primary Analysis. Samples were tested in duplicate at one test concentration (50 μg/mL), and percent inhibitions were calculated relative to blank and growth controls. Samples showing 50% inhibition in at least one test organism were selected for dose response (Secondary) studies.
(§5) Secondary Analysis. Extracts from the Primary Assay, and first-run pure compounds and column fractions were tested in duplicate at 3 test concentrations (5-fold dilutions). Samples dissolved to 20 mg/mL in DMSO were tested at 200, 40, and 8 μg/mL. Samples dissolved to 2 mg/mL in DMSO were tested at 20, 4, and 0.8 μg/mL.

[3] = tested on: Cryptococcus neoformans ATCC 90113; experiment: Antimicrobial microdilution assay against Cryptococcus neoformans (modified CLSI/NCCLS, optical density); assay type: cell-based; settings: for X more potent than Amphotericin B: C. neoformans, ratio of molar IC50 to Amphotericin B; for C. neoformans IC50 / IC50: in vitro, C. neoformans ATCC 90113; for IC50: read-out: C. neoformans IC50 (mol/L)
Outline: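 Broth microdilution (modified CLSI) in RPMI pH 6.0, samples serially diluted in 20% DMSO/saline and tested in duplicate, growth followed by OD630 before and after incubation. MFC is the lowest concentration giving no growth when 5 μL from clear wells is plated on agar.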

[4] = tested on: L. donovani promastigotes; experiment: Antileishmanial Alamar Blue assay on promastigotes; assay type: cell-based, Leishmania donovani; settings: for X more potent than Pentamidine: L. donovani, ratio of molar IC50 to Pentamidine; for L. donovani IC50 / IC50: promastigotes, 48 hours, Alamar Blue; for IC50: read-out: L. donavani IC50
Outline: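 L. donovani promastigotes in RPMI 1640 with 10% FCS, from 3-day culture, were set at 5×10^5/mL and exposed to compound (50-3.1 μg/mL) for 48 hours at 26° C. Growth read by Alamar Blue fluorescence (ex 544/em 590 nm); IC50 from percent growth versus concentration.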

C. glabrata ATCC 90030 = experiment: Antifungal broth dilution assay against C. glabrata (modified CLSI); assay type: cell-based, Candida glabrata
Method: as §2, §3, §4, §5

[5] = tested on: Staphylococcus aureus ATCC 29213; experiment: Antibacterial broth dilution assay against S. aureus (modified CLSI); assay type: cell-based
Method: as §2, §3, §4, §5

[6] = W2 clone, converted with molecular weight, read-out: P. falciparum W2 IC50
[7] = D6 clone, converted with molecular weight, read-out: P. falciparum D6 IC50
[8] = in vitro, converted with molecular weight

Molecule | P. falciparum W2 IC50 ([1]; W2 clone) [µg/mL] | IC50 [1, 6] [nM] | X more potent than chloroquine ([1]; W2 clone) | P. falciparum D6 IC50 ([2]; D6 clone) [µg/mL] | IC50 [2, 7] [nM] | X more potent than chloroquine ([2]; D6 clone) | X more potent than Amphotericin B [3] | C. neoformans IC50 [3] [µg/mL] | IC50 [3] [nM] | X more potent than Pentamidine [4] | L. donovani IC50 [4] [µg/mL] | IC50 [4] [nM] | further results
Clc1ccc2c(N3CCNCCN(c4ccnc5cc(Cl)ccc45)CCNCC3)ccnc2c1.[Cl-].[Cl-].[Mn+2] [K-PAA2-0004-P8] | 0.0875 | 141 | 4.82 | 0.0750 | 120 | 0.30 | – | – | – | – | – | – | –
CCN(CC)CCCC(C)Nc1ccnc2cc(Cl)ccc12 (stereo not shown) [CQ] | – | – | 1.00 | – | – | 1.00 | – | – | – | – | – | – | IC50 ([1]; Plasmodium falciparum, W2, read-out: P. falciparum W2 IC50 (mol/L)): 678 nM; IC50 ([1]; Plasmodium falciparum, W2, read-out: P. falciparum W2 IC50 (μg/mL)): 0.217 µg/mL; IC50 ([2]; Plasmodium falciparum, D6, read-out: P. falciparum D6 IC50 (mol/L)): 36.6 nM; IC50 ([2]; Plasmodium falciparum, D6, read-out: P. falciparum D6 IC50 (μg/mL)): 0.0117 µg/mL
CC(=O)[O-].CC(=O)[O-].F[P-](F)(F)(F)(F)F.F[P-](F)(F)(F)(F)F.O.O.[Cu+2].[Cu+2].c1cc(CN2CCNCCN3CCN(CC3)CC2)cc(CN2CCNCCN3CCN(CC3)CC2)c1 [OB34, [Cu2(m-SB-Cyclens)(OAc)2][PF6]2•2H2O] | – | – | – | – | – | – | 0.32 | ≤ 0.800 | 748 | – | – | – | X more potent than Amphotericin B (C. krusei ATCC 6258): 0.28; C. krusei IC50 (C. krusei ATCC 6258): 5.780 µg/mL; IC50 (C. krusei ATCC 6258): 5400 nM
p-CB-cyclens HCl salt [OB15B] | 0.6558 | 1240 | 0.54 | 0.5799 | 1100 | 0.03 | 0.34 | 0.610 | 699 | 0.22 | 20.94 | 24000 | –
CN1CCN(c2ccnc3cc(Cl)ccc23)CCN(C)CCN(c2ccnc3cc(Cl)ccc23)CC1 [K-PAA-0012-P28] | 0.1992 | 380 | 1.78 | 0.1169 | 223 | 0.16 | – | – | – | – | – | – | –
Clc1ccc2c(N3CCNCCN(c4ccnc5cc(Cl)ccc45)CCNCC3)ccnc2c1.O.O.[Fe+3].[O-][Cl+3]([O-])([O-])[O-].[O-][Cl+3]([O-])([O-])[O-].[O-][Cl+3]([O-])([O-])[O-] [K-PAA-0016-P36, Fe-complex-4,10-bis(7-chloroquinoline)cyclen)Cl2] | 0.0336 | 37.9 | 17.88 | 0.0196 | 22.1 | 1.65 | 0.22 | 0.940 | 1060 | – | – | – | times more potent than chloroquine ([1]; chloroquine-resistant P. falciparum (W2 strain)): ~18
CC(=O)[O-].F[P-](F)(F)(F)(F)F.O.[Ni+2].c1ccc(CN2CCCNCCN(Cc3ccccc3)CCCNCC2)cc1 [BME06, [Ni(Bn2Cyclam)(OAc)]PF6•H2O] | 1.7132 | 2590 | 0.26 | 0.7495 | 1130 | 0.03 | 0.01 | 17.990 | 27200 | 0.13 | 26.25 | 39700 | –
p-CB-homocyclens HCl salt [TA22C] | 0.3189 | 379 | 1.79 | 0.2596 | 308 | 0.12 | 0.71 | 0.310 | 334 | 0.30 | 16.31 | 17600 | –
CN1CCN2CCN(CC1)CCN(Cc1nc3ccccc3n1Cc1ccc([N+](=O)[O-])cc1)CC2 [SJA230, CB-BINO2-cyclen] | – | – | – | – | – | – | 0.01 | 7.930 | 16600 | – | – | – | X more potent than Amphotericin B (C. krusei ATCC 6258): 0.09; C. krusei IC50 (C. krusei ATCC 6258): 7.690 µg/mL; IC50 (C. krusei ATCC 6258): 16100 nM
m-CB-homocyclens HCl salt [OB65B] | 0.3783 | 382 | 1.78 | 0.2921 | 295 | 0.12 | 1.47 | 0.160 | 162 | 0.48 | 11.08 | 11200 | –
CC(=O)[O-].CC(=O)[O-].F[P-](F)(F)(F)(F)F.F[P-](F)(F)(F)(F)F.O.[Ni+2].[Ni+2].c1cc(CN2CCNCCN3CCN(CC3)CC2)cc(CN2CCNCCN3CCN(CC3)CC2)c1 [OB35, [Ni2(m-SB-Cyclens)(OAc)2][PF6]2•H2O] | – | – | – | – | – | – | 0.31 | ≤ 0.800 | 768 | – | – | – | X more potent than Amphotericin B (C. krusei ATCC 6258): 1.95; C. krusei IC50 (C. krusei ATCC 6258): 0.800 µg/mL; IC50 (C. krusei ATCC 6258): 768 nM
Clc1ccc2c(N3CCCNCCCNCCNCCC3)ccnc2c1 [K-JDD-0011-P36] | 0.5279 | 1400 | 0.48 | 0.0203 | 54 | 0.68 | – | – | – | – | – | – | –
CC(=O)[O-].F[P-](F)(F)(F)(F)F.[Co+2].c1ccc(CN2CCN3CCCN(CC2)CCN(Cc2ccccc2)CC3)cc1 [AW038, [Co(Bn2PBCyclen)(C2H3O2)]PF6] | – | – | – | – | – | – | 0.04 | 4.370 | 6670 | 0.17 | 20.66 | 31500 | C. glabrata IC50 (C. glabrata ATCC 90030; in vitro): 5.800 µg/mL; IC50 (C. glabrata ATCC 90030; [8]): 8850 nM; X more potent than Amphotericin B (C. glabrata ATCC 90030; molar IC50 ratio versus amphotericin B): 0.16; S. aureus IC50 ([5]; in vitro): 5.080 µg/mL; IC50 [5, 8]: 7750 nM; X more potent than ciprofloxacen ([5]; molar IC50 ratio versus ciprofloxacen): 0.04
